Experimental data: patent US10358436B2, “Kinase inhibitors and method of treating cancer” (University Health Network, priority 2010, dated 2019)
Counter-ions that a name gives are not always drawn.

biological target: Aurora A (Homo sapiens (Human), UniProt O14965); experiment: Aurora A inhibition assay (Z-Lyte); assay type: biochemical
Sequence (O14965 whole entry): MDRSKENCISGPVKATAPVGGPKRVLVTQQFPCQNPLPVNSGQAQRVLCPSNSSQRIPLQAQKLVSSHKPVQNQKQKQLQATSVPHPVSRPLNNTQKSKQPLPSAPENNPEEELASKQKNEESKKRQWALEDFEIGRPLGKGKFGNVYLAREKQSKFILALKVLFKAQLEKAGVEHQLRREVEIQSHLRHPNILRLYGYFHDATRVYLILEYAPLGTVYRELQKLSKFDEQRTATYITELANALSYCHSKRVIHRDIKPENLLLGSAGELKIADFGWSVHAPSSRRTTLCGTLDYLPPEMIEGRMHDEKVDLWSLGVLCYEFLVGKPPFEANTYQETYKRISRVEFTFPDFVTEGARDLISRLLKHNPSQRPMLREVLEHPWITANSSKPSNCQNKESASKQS

SMILES | inhibition at 1 µM
COc1ccc2c(c1)[C@]1(CC1c1ccc3c(/C=C/c4ccc(CN5CCCCC5)nc4)n[nH]c3c1)C(=O)N2 (mixture of isomers) [Example A62, (1R,2S)-(E)-5′-methoxy-2-(3-((E)-2-(6-(piperidin-1-ylmethyl)pyridin-3-yl)vinyl)-1H-indazol-6-yl)spiro[cyclopropane-1,3′-indolin]-2′-one 2,2,2-trifluoroacetate salt] | > 50%
O=C1Nc2ccccc2[C@]12C[C@H]2c1ccc2c(I)n[nH]c2c1 (relative stereo) [Example A9, (1R*,2S*)-2-(3-iodo-1H-indazol-6-yl)spiro[cyclopropane-1,3′-indolin]-2′-one] | < 50%
CN1CCN(c2ccc(-c3n[nH]c4cc([C@@H]5C[C@@]56C(=O)Nc5ccc(Br)cc56)ccc34)cn2)CC1 (relative stereo) [Example A19, (1R*,2S*)-5′-bromo-2-(3-(6-(4-methylpiperazin-1-yl)pyridin-3-yl)-1H-indazol-6-yl)spiro[cyclopropane-1,3′-indolin]-2′-one] | < 50%
COc1ccc2c(c1)[C@]1(C[C@H]1c1ccc3c(-c4ccc(N5CCOCC5)nc4)n[nH]c3c1)C(=O)N2 (relative stereo) [Example A20, (1R*,2S*)*-5′-Methoxy-2-(3-(6-morpholinopyridin-3-yl)-1H-indazol-6-yl)spiro[cyclopropane-1,3′-indolin]-2′-one] | < 50%
O=C1Nc2ncc(Br)cc2[C@]12C[C@H]2c1ccc2c(/C=C/c3cccnc3)n[nH]c2c1 (relative stereo) [Example A27, (1R*,2S*)-5′-bromo-2-(3-((E)-2-(pyridin-3-yl)vinyl)-1H-indazol-6-yl)spiro[cyclopropane-1,3′-pyrrolo[2,3-b]pyridin]-2′(1′H)-one] | < 50%
O=C1Nc2ccccc2[C@]12C[C@H]2c1ccc2c(/C=C/c3cccnc3)n[nH]c2c1 (relative stereo) [Example A28, (1R*,2S*)-2-(3-((E)-2-(pyridin-3-yl)vinyl)-1H-indazol-6-yl)spiro-[cyclopropane-1,3′-indolin]-2′-one] | > 50%
O=C1Nc2ccc(F)cc2[C@]12C[C@H]2c1ccc2c(I)n[nH]c2c1 (relative stereo) [Example A40, (1R*,2S*)-5′-fluoro-2-(3-iodo-1H-indazol-6-yl)spiro[cyclopropane-1,3′-indolin]-2′-one] | < 50%
COc1ccc2c(c1)[C@]1(C[C@H]1c1ccc3c(/C=C/c4ccc(CN5CCOCC5)cc4)n[nH]c3c1)C(=O)N2 (relative stereo) [Example A41, (1R*,2S*)-(E)-5′-methoxy-2-(3-(4-(morpholinomethyl)styryl)-1H-indazol-6-yl)spiro[cyclopropane-1,3′-indolin]-2′-one 2,2,2-trifluoroacetate] | > 50%
COc1ccc2c(c1)[C@]1(C[C@H]1c1ccc3c(-c4cccc(CN5CCCCC5)c4)n[nH]c3c1)C(=O)N2 (relative stereo) [Example A44, (1R*,2S*)-5′-methoxy-2-(3-(3-(piperidin-1-ylmethyl)phenyl)-1H-indazol-6-yl)spiro[cyclopropane-1,3′-indolin]-2′-one 2,2,2-trifluoroacetate] | < 50%
COc1ccc2c(c1)[C@]1(C[C@H]1c1ccc3c(-c4ccc(CO)cc4)n[nH]c3c1)C(=O)N2 (relative stereo) [Example A45, (1R*,2S*)-2-(3-(4-(hydroxymethyl)phenyl)-1H-indazol-6-yl)-5′-methoxyspiro[cyclopropane-1,3′-indolin]-2′-one 2,2,2-trifluoroacetate] | < 50%
COc1ccc2c(c1)[C@]1(C[C@H]1c1ccc3c(-c4cccc(N5CCNCC5)c4)n[nH]c3c1)C(=O)N2 (relative stereo) [Example A47, (1R*,2S*)-5′-methoxy-2-(3-(3-(piperazin-1-yl)phenyl)-1H-indazol-6-yl)spiro[cyclopropane-1,3′-indolin]-2′-one 2,2,2-trifluoroacetate] | < 50%
COc1ccc2c(c1)[C@]1(C[C@H]1c1ccc3c(-c4ccc(N5CCNCC5)cc4)n[nH]c3c1)C(=O)N2 (relative stereo) [Example A48, (1R*,2S*)-5′-methoxy-2-(3-(4-(piperazin-1-yl)phenyl)-1H-indazol-6-yl)spiro[cyclopropane-1,3′-indolin]-2′-one 2,2,2-trifluoroacetate] | < 50%
COc1ccc2c(c1)[C@]1(C[C@H]1c1ccc3c(C#Cc4cccnc4)n[nH]c3c1)C(=O)N2 (relative stereo) [Example A52, (1R*,2S*)- and (1R*,2S*)-5′-methoxy-2-(3-(pyridin-3-ylethynyl)-1H-indazol-6-yl)spiro[cyclopropane-1,3′-indolin]-2′-one] | < 50%
O=C1Nc2ccccc2[C@]12C[C@H]2c1ccc2c(/C=C/c3ccccn3)n[nH]c2c1 (relative stereo) [Example A53, (1R*,2S*)-2-(3-((E)-2-(pyridin-2-yl)vinyl)-1H-indazol-6-yl)spiro[cyclopropane-1,3′-indolin]-2′-one] | > 50%
N#Cc1ccc(/C=C/c2n[nH]c3cc([C@@H]4C[C@@]45C(=O)Nc4ccccc45)ccc23)cc1 (relative stereo) [Example A54, 4-((E)-2-(6-((1R*,2S*)-2′-oxospiro[cyclopropane-1,3′-indoline]-2-yl)-1H-indazol-3-yl)vinyl)benzonitrile] | > 50%
O=C1Nc2ccccc2[C@]12C[C@H]2c1ccc2c(/C=C/c3ccc(CN4CCCCC4)cc3)n[nH]c2c1 (relative stereo) [Example A57, (1R*,2S*)-(E)-2-(3-(4-(piperidin-1-ylmethyl)styryl)-1H-indazol-6-yl)spiro[cyclopropane-1,3′-indolin]-2′-one 2,2,2-trifluoroacetate] | > 50%
O=C1Nc2ccccc2[C@]12C[C@H]2c1ccc2c(/C=C/c3ccc(CN4CCCC4)cc3)n[nH]c2c1 (relative stereo) [Example A60, (1R*,2S*)-(E)-2-(3-(4-(pyrrolidin-1-ylmethyl)styryl)-1H-indazol-6-yl)spiro[cyclopropane-1,3′-indolin]-2′-one 2,2,2-trifluoroacetate] | > 50%
O=C1Nc2ccccc2[C@]12C[C@H]2c1ccc2c(/C=C/c3ccc(CN4CCCCC4)nc3)n[nH]c2c1 (relative stereo) [Example A63, (1R*,2S*)-(E)-2-(3-((E)-2-(6-(piperidin-1-ylmethyl)pyridin-3-yl)vinyl)-1H-indazol-6-yl)spiro[cyclopropane-1,3′-indolin]-2′-one 2,2,2-trifluoroacetate salt] | > 50%
CN1C(=O)[C@@]2(C[C@H]2c2ccc3c(/C=C/c4ccc(CN5CCOCC5)cc4)n[nH]c3c2)c2ccccc21 (relative stereo) [Example A87, (1R*,2S*)-(E)-1′-methyl-2-(3-(4-(morpholinomethyl)styryl)-1H-indazol-6-yl)spiro[cyclopropane-1,3′-indolin]-2′-one 2,2,2-trifluoroacetate] | > 50%
COc1ccc2c(c1)[C@]1(C[C@H]1c1ccc3c(-c4ccc(N5CCN(C(C)C)CC5)cc4)n[nH]c3c1)C(=O)N2 (relative stereo) [Example A96, (1R*,2S*)-2-(3-(4-(4-isopropylpiperazin-1-yl)phenyl)-1H-indazol-6-yl)-5′-methoxyspiro[cyclopropane-1,3′-indolin]-2′-one] | < 50%
COc1ccc2c(c1)[C@]1(C[C@H]1c1ccc3c(-c4ccc(N5CCC(O)CC5)nc4)n[nH]c3c1)C(=O)N2 (relative stereo) [Example A117, (1R*,2S*)-2-(3-(6-(4-hydroxypiperidin-1-yl)pyridin-3-yl)-1H-indazol-6-yl)-S-methoxyspiro[cyclopropane-1,3′-indolin]-2′-one 2,2,2-trifluoroacetate] | < 50%
COc1ccc2c(c1)[C@]1(C[C@H]1c1ccc3c(-c4ccc(N5CCC(N(C)C)CC5)cc4)n[nH]c3c1)C(=O)N2 (relative stereo) [Example A119, (1R*,2S*)-2-(3-(4-(4-(dimethylamino)piperidin-1-yl)phenyl)-1H-indazol-6-yl)-5′-methoxyspiro[cyclopropane-1,3′-indolin]-2′-one 2,2,2-trifluoroacetate] | < 50%
COc1ccc2c(c1)[C@]1(C[C@H]1c1ccc3c(-c4ccc(C5CCNCC5)cc4)n[nH]c3c1)C(=O)N2 (relative stereo) [Example A122, (1R*,2S*)-5′-methoxy-2-(3-(4-(piperidin-4-yl)phenyl)-1H-indazol-6-yl)spiro[cyclopropane-1,3′-indolin]-2′-one 2,2,2-trifluoroacetate] | < 50%
NS(=O)(=O)c1cccc(-c2n[nH]c3cc([C@@H]4C[C@@]45C(=O)Nc4ccccc45)ccc23)c1 (relative stereo) [Example A130, 3-(6-((1R*,2S*)-2′-oxospiro[cyclopropane-1,3′-indoline]-2-yl)-1H-indazol-3-yl)benzenesulfonamide] | < 50%
COc1ccc2c(c1)[C@]1(C[C@H]1c1ccc3c(/C=C/c4cccc(CN5CCOCC5)c4)n[nH]c3c1)C(=O)N2 (relative stereo) [Example A133, (1R*,2S*)-5′-methoxy-2-(3-(3-(morpholinomethyl)styryl)-1H-indazol-6-yl)spiro[cyclopropane-1,3′-indolin]-2′-one 2,2,2-trifluoroacetate] | > 50%
COc1ccc2c(c1)[C@]1(C[C@H]1c1ccc3c(/C=C/c4cccc(CN(C)C)c4)n[nH]c3c1)C(=O)N2 (relative stereo) [Example A135, (1R*,2S*)-2-(3-(3-((dimethylamino)methyl)styryl)-1H-indazol-6-yl)-5′-methoxyspiro[cyclopropane-1,3′-indolin]-2′-one 2,2,2-trifluoroacetate] | > 50%
COc1ccc2c(c1)[C@]1(C[C@H]1c1ccc3c(-c4cccc(CN5CCOCC5)c4)n[nH]c3c1)C(=O)N2 (relative stereo) [Example A136, (1R*,2S*)-5′-methoxy-2-(3-(3-(morpholinomethyl)phenyl)-1H-indazol-6-yl)spiro[cyclopropane-1,3′-indolin]-2′-one 2,2,2-trifluoroacetate] | < 50%
